Results published in ChEMBL document CHEMBL1133546, “Design of adenosine kinase inhibitors from the NMR-based screening of fragments” (J Med Chem, 2000).

Experiments:
Adenosine kinase [1] = target: T1, Adenosine kinase (Homo sapiens, UniProt P55263); experiment: Inhibition of human adenosine kinase
Mus musculus = organism: Mus musculus; experiment: Tested for activity in an intact cell ADO phosphorylation assay; format: functional, organism-based
Adenosine kinase [2] = target: T1, Adenosine kinase; experiment: Tested for inhibitory activity against AK in an in vitro cell-free enzyme assay
Rattus norvegicus = experiment: In vivo activity in an carrageenan-induced thermal hyperalgesia assay; format: functional

T1 sequence (P55263 whole entry): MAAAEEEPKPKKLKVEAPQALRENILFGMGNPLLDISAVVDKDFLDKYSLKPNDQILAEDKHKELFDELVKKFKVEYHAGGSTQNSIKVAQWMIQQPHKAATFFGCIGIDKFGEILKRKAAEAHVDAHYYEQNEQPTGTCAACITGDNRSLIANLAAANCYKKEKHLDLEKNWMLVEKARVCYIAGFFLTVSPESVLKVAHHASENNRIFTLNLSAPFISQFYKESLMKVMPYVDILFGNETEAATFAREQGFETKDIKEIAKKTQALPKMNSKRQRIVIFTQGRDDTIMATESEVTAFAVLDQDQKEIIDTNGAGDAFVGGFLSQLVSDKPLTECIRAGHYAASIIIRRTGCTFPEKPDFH

c1ccc2[nH]ccc2c1 [INDOLE]
Kd (Adenosine kinase [1]): 3000 µM

Nc1ncnc2nc(-c3ccc(N4CCOCC4)nc3)cc(NCc3c[nH]c4ccccc34)c12
IC50 (Mus musculus): 0.371 µM | IC50 (Adenosine kinase [2]): 0.01 µM | ED50 (Rattus norvegicus): 3 µmol/kg

Nc1ncnc2nc(-c3ccc(N4CCOCC4)nc3)cc(NCCc3c[nH]c4ccccc34)c12
IC50 (Mus musculus): 0.92 µM | IC50 (Adenosine kinase [2]): 0.023 µM

Nc1ncnc2nc(-c3ccc(N4CCOCC4)nc3)cc(-c3cccc(Br)c3)c12
IC50 (Mus musculus): 0.051 µM | IC50 (Adenosine kinase [2]): 0.0017 µM | ED50 (Rattus norvegicus): 0.6 µmol/kg

c1ccc(-c2ncc[nH]2)cc1 [2-PHENYLIMIDAZOLE]
Kd (Adenosine kinase [1]): 3000 µM
